For assay [1], the system named is MCF-7 cells. Briefly: Cell cycle analysis by flow cytometry (PI). The format is cell-based, human. Conditions: for fold elevation in sub-G1 phase / fold increase of cells in G2/M phase: MCF-7, in comparison to the control (DMSO); for %Sub-G1 / %G2/M / %S / %G0–G1: MCF-7 cells treated at IC50, 24 h; for %Sub-G1: control 1.37; for %G2/M: control 14.73; for %S: control 27.45; for %G0–G1: control 56.45. As to the method: Most of the cytotoxic agents wield their anti-proliferative effect by arresting the cell cycle at some checkpoints. Cell cycle analysis employs flow cytometry to distinguish cells within the different cell cycle phases. […] MCF-7 cells were treated by the IC50 of the two conjugates and their impact on the cell population was recorded. […] This was accompanied by discernible escalation in the proportion of cells in the G2/M phase by 2.80- and 2.46-fold with concomitant elevation in the sub-G1 phase by 17.8 and 16.25-fold, respectively, in comparison to the control (DMSO). […]
The two examined human breast cancer cell lines (MCF-7 and Breast MDA-MB-231) have been obtained from American Type Culture Collection (ATCC). The cells were maintained in Dulbecco's modified Eagle's medium (DMEM) supplemented with 10% heat inactivated fetal calf serum (GIBCO), penicillin (100 U/ml) and streptomycin (100 µg/ml) at 37 °C in humidified atmosphere containing 5% CO2. Cells at a concentration of 0.50 x 106 were grown in a 25 cm2 flask in 5 ml of culture medium. […]
Breast cancer MCF-7 cells were treated with hybrids 6e and 6f for 24 h (at their IC50 concentration), and then cells were washed twice with ice-cold phosphate buffered saline (PBS). Subsequently, the treated cells were collected by centrifugation, fixed in ice-cold 70% (v/v) ethanol, washed with PBS, re-suspended with 100 μg/mL RNase, stained with 40 μg/mL PI, and analyzed by flow cytometry using FACS Calibur (Becton Dickinson, BD, Franklin Lakes, NJ, USA). The cell cycle distributions were calculated using CellQuest software 5.1 (Becton Dickinson).

For assay [2], the system named is Bax. The assay is described as follows: ELISA of Bax level in MCF-7 cells. The format is cell-based, human. The following applies: for fold increase of Bax level: MCF-7, vs control; for Bax: MCF-7 cells treated at IC50, 48 h, control 38.3 ± 2.2. As to the method: Homogeneously, both conjugates were able to decrease the level of the anti-apoptotic Bcl-2 protein by 2.12-, and 1.7-fold, respectively (Table 3). As a more analytical variable, the Bax/Bcl-2 ratio was verified to be amplified by conjugates 6e and 6f, 18- and 12-fold, respectively.
Assessment of the levels for the proapoptotic markers (Bax, caspase-3, and p53) as well as the antiapoptotic marker (Bcl-2) was carried out through the use of ELISA colorimetric kits in accordance with the manufacturer’s instructions, as mentioned earlier. In addition, the pro-apoptotic potential of indoles 6e and 6f towards MCF-7 cells was evaluated through an FITC Annexin V apoptosis detection kit by flow cytometry, in accordance with the manufacturer’s protocol and referring to the reported procedures.
The levels of the pro-apoptotic markers (Bax, caspase-3 and p53) as well as the anti-apoptotic marker Bcl-2 were determined using ELISA colorimetric kits per the manufacturer’s instructions. Breast cancer MCF-7 cells were cultured as a monolayer in T-25 flasks and were seeded to attain 30% confluency prior to treatment. Cells were then […]
of treatment, cells were collected via trypsinization and centrifuged at 10,000 rpm. The pellet was then rinsed with PBS and lysed in RIPA lysis buffer at 4 °C for 45 min, then centrifuged at 14,000 rpm for 20 min to remove the cellular debris. Lysates were then collected and stored at −80 °C for later protein determination using Pierce BCA Protein Assay Kit according to manufacturer’s recommendations.
The cell lysate was diluted 10 times, and 100 μL ([…]) was added to the wells of four separate microtiter plates for the four ELISA kits that were pre-coated with primary antibodies specific to Bax, Bcl-2, caspase-3 and p53 proteins, respectively. A secondary biotin-linked antibody specific to the protein captured by the primary antibody was further added to bind the captured protein, forming a “sandwich” of specific antibodies around the desired protein in the cell lysate. The streptavidin-HRP complex was then used to bind the biotin-linked secondary antibody through its streptavidin portion. The HRP domain reacted with the added TMB substrate to form a colored product that measured at 450 nm by a plate reader ChroMate-4300 after the reaction was terminated via the addition of stop solution. […]
Cells were then rinsed in binding buffer and resuspended in 150
μL of binding buffer with the addition of 1 μL of DAPI (1 μg/μL in PBS). […]

The target of assay [3] is T1, CDK2 (Homo sapiens, UniProt P24941).
T1 construct: purchased Reaction Biology Corp. (Kinase HotSpot service)
Briefly: CDK2 kinase inhibition (Reaction Biology HotSpot). The format is biochemical. The following applies: single dose of 20 µM; read-out: % Enzyme Inhibitory Activity CDK2. The source says:
5. CDK Kinase Inhibitory Activity
along with required cofactors.
Kinase activity data were
(dimethyl sulfoxide) reactions.

Some results are limits rather than exact numbers.

As to `COc1ccc2c(c1)/C(=N/NC(=O)c1cc3ccccc3[nH]1)C(=O)N2` [6f], in assay [1], the “fold elevation in sub-G1 phase” value was determined as 16.25 fold, the “fold increase of cells in G2/M phase” value came to 2.46 fold, the “%Sub-G1” value is recorded as 22.26% and the “%G2/M” value was found to be 36.26%. In assay [1], the “%S” value turned out to be 19.29% and the “%G0–G1” value came out at 22.19%. In assay [2], the “fold increase of Bax level” value was determined as 7 fold and the Bax is reported as 268.7 ± 9.5 pg/mg of Total Protein. Further, in assay [3], the inhibition at 20 µM is ≥ 50%.

As to `Cc1ccc2c(c1)/C(=N/NC(=O)c1cc3ccccc3[nH]1)C(=O)N2` [6e], in assay [1], the “fold elevation in sub-G1 phase” value is recorded as 17.8 fold, the “fold increase of cells in G2/M phase” value came out at 2.80 fold, the “%Sub-G1” value is on record as 24.49% and the “%G2/M” value is listed as 41.47%. For the same compound, in assay [1], the “%S” value was found to be 14.81% and the “%G0–G1” value is reported as 19.23%. Besides, in assay [2], the “fold increase of Bax level” value is 8.5 fold and the Bax is given as 325.3 ± 12.1 pg/mg of Total Protein. The inhibition at 20 µM in assay [3] is ≥ 50%.
